Data taken from paper PMC9219824, “Antiplasmodial Cyclodecapeptides from Tyrothricin Share a Target with Chloroquine” (Antibiotics, 2022).
Square brackets hold non-standard residues; d marks the D form. Peptide text beside a SMILES is read from it. Orn = NCCC[C@H](N)C(=O)O

How the values were obtained:
CQI P. falciparum D10 = test: microbe, parasite or virus in culture; format: cell-based, Plasmodium falciparum; details: for Selectivity Index IC50D10/IC50 (COS cells): second value of cell; for IC50: 48 h, Malstat, ± SEM
Method: The antimalarial assays were carried out according to the method of Nkhoma et al.. Once the cultures reached a parasitemia of 5–15%, they were synchronized four days prior to the day of the assay as described above which allowed the cultures to recover from the stress caused by the D-sorbitol. On the day of the assay, the parasitemia was determined following observation by light microscopy after Giemsa staining of a thin blood smear from the culture. The cultures at young trophozoite stage were diluted to 2% parasitemia and 2% hematocrit by addition of fresh RPMI medium and uninfected erythrocytes. This culture suspension was distributed in 96-well culture plates at 90 µL/well. The peptides and CQ diluted in culture medium lacking albumax II were added to the cultures in triplicate at 10 µL/well to give a total volume of 100 µL/well. Peptide solvent and medium (10 µL/well) was used as sterility control and in growth control and 10 μL 1.0 mM GS was used as positive control. Assays were carried out in at least three biological repeats each consisting of three technical repeats to ascertain reproducibility.
For the activity determination against parasites, plates were incubated at 37 °C for 48 h under an atmosphere of 3% CO2, 4% O2 and 93% N2. The culture suspension was frozen away at −20 °C until determination of the residual lactate dehydrogenase activity of the parasites by the Malstat assay, as adapted from Gomez et al..
For the Malstat assay, the plates were transferred to −80 °C for 1 h following overnight storage at −20 °C to ensure that all the suspensions in each well of the 96-well plate were frozen. The plates were then thawed at room temperature. The Malstat reagent consisted of 200 μL Triton X-100, 2 g L-lactic acid (substrate), 0.66 g Tris-HCl buffer and 0.011 g of 3-acetylpyridine adenine dinucleotide (APAD) (coenzyme for parasite lactate dehydrogenase) in 100 mL analytical quality water set to a pH of 9.0 [93]. The lactate dehydrogenase reaction was initiated by addition of a second solution, NBT/PES solution composed of 1.96 mM nitro blue tetrazolium (NBT) and 0.24 mM phenazine ethosulfate (PES) which was always protected from light. A 15 µL aliquot of the thawed and properly mixed suspension from the assay plates was added to 100 µL of the Malstat reagent, followed by addition of 25 µL of the NBT/PES solution. The reaction mixtures were then incubated at room temperature in the dark for 30 min followed by spectrophotometric measurement of the absorbance of the reduced APAD at 620 nm using a Model 680 Microplate reader from BioRad.
(§1) The data obtained from spectrophotometric measurement of the plates following the lactate dehydrogenase (Malstat) assay were converted to percentage growth inhibition using the data analysis method described by Rautenbach et al.. The background was obtained from control wells in which the parasites were killed with 100 µM GS while total growth was from the wells that were not submitted to peptides. The background for the hemolysis evaluation was from wells in which the uninfected erythrocytes were lysed using 100 µM GS while growth control was from the wells with uninfected erythrocytes that received no peptides. The percentage COS-1 cell death (CellTiter Blue™ assay) was similarly calculated from absorbance values. All the dose–response assay data were evaluated using GraphPad Prism 4.03 (GraphPad Software, San Diego, CA, USA) followed by non-linear regression and sigmoidal curves were fitted (having variable slope and a constant difference of 100 between the top and bottom plateau). Following calculation of the 50% P. falciparum inhibitory concentration (IC50), 50% hemolytic concentration (HC50) and 50% lethal concentration (LC50) for COS-1 cells.

human erythrocytes = test: Hemolytic activity; format: cell-based; details: 2% hematocrit, 1 h at 37 °C, ± SEM
Method: To determine the hemolytic activity of the peptides, the duplicate 96-well plates with samples added to 90 μL 2% hematocrit per well were incubated for one hour at 37 °C and centrifuged using a swing-out rotor at 200× g for 3 min. The supernatant was diluted 1:8 in analytical quality water in separate 96-well plates and after mixing, the absorbance of the suspension was determined at 405 nm.
as §1

P. falciparum D10 [1] = test: Parasite stage distribution, Giemsa staining and light microscopy; format: cell-based, Plasmodium falciparum; details: 200 nM, synchronized trophozoite stage cultures, 0 to 48 h
Method: For light microscopy, following addition of TpcC, aliquots were collected from the cultures at different time-points for preparation of Giemsa-stained blood smears. The assay was carried out in duplicate and lactate dehydrogenase activity of the residual cultures was determined after 48 h.

P. falciparum D10 [2] = test: Super-resolution structured illumination fluorescence microscopy (SR-SIM) of parasite morphology; format: cell-based, Plasmodium falciparum
Method: Prior to staining for fluorescence microscopy, the cultures were centrifuged at 300× g for 4 min, then the supernatant was discarded and cells were suspended to the same percentage hematocrit in a solution made of one part analytical quality water and three parts sterile PBS (pH 7.2–7.3) in order to reduce solute concentration.
The fluorescence microscopy involved staining suspended cultures (TpcC treated and untreated) prepared as described above (except for not being synchronized within the last 48 h of culturing) with combinations of trypan blue (red fluorescence) and either SYTO® 9 green-fluorescent nucleic acid stain or LipidTOX™ neutral lipid stain (green fluorescence). To view the neutral lipids, the cells were stained with LipidTOX™ (stock solution dilution at 1:200), incubated for 30 min at room temperature before staining with trypan blue at final concentration of 0.002% v/v. For nucleic acid staining, the cells were stained with SYTO® 9 (stock solution dilution at 1:1000) and trypan blue at final concentration of 0.002% v/v and incubated at room temperature for 15 min. Super-resolution structured illumination (SR-SIM) fluorescence microscopy was carried out as follows: thin ([…]) z-stacks of high-resolution image frames were accumulated in 5 rotations using an alpha Plan-Apochromat 100×/1.46 oil DIC M27 ELYRA objective, employing an ELYRA S.1 (Carl Zeiss Microimaging) microscope equipped with a 488 nm laser (100 mW), 561 nm laser (100 mW) and Andor EM-CCD camera (iXon DU 885). Images were […] using ZEN software (black edition, 2011, version 7.04.287) based on a structured illumination algorithm. Image projections and animations were carried out on reconstructed super-resolution images in ZEN.

Row | SMILES | Selectivity Index IC50D10/IC50 (COS cells) (CQI P. falciparum D10) | IC50 (CQI P. falciparum D10) | increase in activity towards the CQI D10 strain (CQI P. falciparum D10; compared with 3D7) | HC50, Erythrocytes (human erythrocytes) | effect on parasite stage progression (P. falciparum D10 [1]) | permeabilization or lysis of parasite and erythrocyte membranes (trypan blue leakage) (P. falciparum D10 [2]; lethal concentration of 200 nM) | chromatin morphology (SYTO9 nuclear staining) (P. falciparum D10 [2]; post 6 h treatment) | neutral lipid structures (LipidTOX stain) (P. falciparum D10 [2]; trophozoite stage cultures, after 5 h in culture)
1 | CC(C)C[C@@H]1NC(=O)[C@H](CCCN)NC(=O)[C@H](C(C)C)NC(=O)[C@H](Cc2ccc(O)cc2)NC(=O)[C@H](CCC(N)=O)NC(=O)[C@H](CC(N)=O)NC(=O)[C@@H](Cc2ccccc2)NC(=O)[C@H](Cc2ccccc2)NC(=O)[C@@H]2CCCN2C(=O)[C@@H](Cc2ccccc2)NC1=O [TrcA, tyrocidine A] (cyclo(V[Orn]L[dF]PF[dF]NQY)) | 51 | – | – | – | – | – | – | –
2 | CC(C)C[C@@H]1NC(=O)[C@H](CCCN)NC(=O)[C@H](C(C)C)NC(=O)[C@H](Cc2c[nH]c3ccccc23)NC(=O)[C@H](CCC(N)=O)NC(=O)[C@H](CC(N)=O)NC(=O)[C@@H](Cc2c[nH]c3ccccc23)NC(=O)[C@H](Cc2c[nH]c3ccccc23)NC(=O)[C@@H]2CCCN2C(=O)[C@@H](Cc2ccccc2)NC1=O [TpcC, tryptocidine C] (cyclo(L[dF]PW[dW]NQWV[Orn])) | 238 | 0.042 ± 0.017 µM | about a three-fold increase in activity | 9.1 ± 1.5 (4) μM | delay in the occurrence of the schizont stage | none of the parasite membranes or erythrocyte membrane was permeabilized or lysed | abnormality in the packing or compactness of the chromatin | the lipid structures were distorted and diffused
3 | CC(C)C[C@@H]1NC(=O)[C@H](CCCN)NC(=O)[C@H](C(C)C)NC(=O)[C@H](Cc2ccccc2)NC(=O)[C@H](CCC(N)=O)NC(=O)[C@H](CC(N)=O)NC(=O)[C@@H](Cc2ccccc2)NC(=O)[C@H](Cc2ccccc2)NC(=O)[C@@H]2CCCN2C(=O)[C@@H](Cc2ccccc2)NC1=O [PhcA, phenycidine A] (cyclo(FV[Orn]L[dF]PF[dF]NQ)) | 154 | 0.052 ± 0.017 µM | – | 7.1 ± 1.6 (8) μM | – | – | – | –
